From DBAASP
Converted amounts (≈) assume the structure as drawn. “And” between values parts separate entries of the source, which are not always exact repeats. Equal entries are not always repeated.

Legend:
Assay in all cases: ≥ marks a high value that may be exact or a test limit, other limits are often not marked, values filed in µg/mL are converted to µM
[1] = system: Staphylococcus aureus NCTC 10571
[2] = system: Escherichia coli NCTC 10418
Providencia stuartii = system: Providencia stuartii
Klebsiella sp. = system: Klebsiella sp.
[3] = system: Escherichia coli NCTC 8007
Klebsiella aerogenes = system: Klebsiella aerogenes
Acinetobacter sp. = system: Acinetobacter sp.
Proteus mirabilis = system: Proteus mirabilis
Candida albicans 105 = system: Candida albicans 105
Escherichia coli UB1005 = system: Escherichia coli UB1005
[4] = system: Pseudomonas aeruginosa PAO1
[5] = system: Staphylococcus aureus R147
[6] = system: Staphylococcus epidermidis
Escherichia coli O111 = system: Escherichia coli O111
[7] = system: Enterococcus faecalis ATCC 29212
[8] = system: Staphylococcus aureus NCTC 4163
Escherichia coli DC2 = system: Escherichia coli DC2
Candida albicans 3153A = system: Candida albicans 3153A
[9] = system: Salmonella enterica subsp. enterica serovar Typhimurium ATCC 14028s
Escherichia coli O157:H7 = system: Escherichia coli O157:H7
[10] = system: Staphylococcus aureus 1056
[11] = system: Pseudomonas aeruginosa Z61
[12] = system: Salmonella enterica serovar Typhimurium MS4252S
[13] = system: Escherichia coli KCTC 2433
[14] = system: Bacillus subtilis ATCC 6633
Escherichia coli = system: Escherichia coli
Staphylococcus aureus = system: Staphylococcus aureus
Bacillus cereus = system: Bacillus cereus
[15] = system: Staphylococcus aureus KCTC 3881
[16] = system: Shigella dysenteriae ATCC 9752
[17] = system: Candida albicans ATCC 36232
[18] = system: Micrococcus luteus ATCC 4698
[19] = system: Pseudomonas aeruginosa ATCC 9027
[20] = system: Staphylococcus epidermidis ATCC 12228
Lactococcus lactis = system: Lactococcus lactis
[21] = system: Klebsiella pneumoniae ATCC 10031
[22] = system: Proteus mirabilis ATCC 25933
[23] = system: Candida albicans ATCC 64549
[24] = system: Staphylococcus aureus ATCC 29213
Staphylococcus aureus 75 = system: Staphylococcus aureus 75
[25] = system: Staphylococcus aureus ATCC 25923
[26] = system: Pseudomonas aeruginosa 73
[27] = system: Pseudomonas aeruginosa 50
[28] = system: Acinetobacter baumannii 9931
[29] = system: Acinetobacter baumannii ATCC 19606
[30] = system: Bacillus subtilis ATCC 23857
[31] = system: Pseudomonas aeruginosa ATCC 27853
[32] = system: Escherichia coli ATCC 25922
Escherichia coli 780 = system: Escherichia coli 780
Escherichia coli 804 = system: Escherichia coli 804
[33] = system: Staphylococcus aureus 113
[34] = system: Klebsiella pneumoniae ATCC 700603
[35] = system: Acinetobacter baumannii 97830

With `CC(C)[C@H](NC(=O)[C@H](CCCCN)NC(=O)[C@H](CCCN=C(N)N)NC(=O)[C@@H]1CCCN1C(=O)[C@H](CC(N)=O)NC(=O)[C@H](CCCN=C(N)N)NC(=O)[C@H](CCC(N)=O)NC(=O)[C@H](Cc1c[nH]c2ccccc12)NC(=O)[C@H](CCC(N)=O)NC(=O)[C@@H](N)Cc1ccccc1)C(=O)N[C@@H](CCCN=C(N)N)C(=O)O` [FQWQRNPRKVR] as the compound, how does the MIC [1] read?
Its MIC is no less than 250 µM.

And the MIC [2]?
Its MIC is no less than 750 µM.

What about the MIC (Providencia stuartii) of the same compound?
The MIC was no less than 1000 µM.

And the MIC (Klebsiella sp.)?
The MIC was no less than 1000 µM.

What about the MIC [3] of the same compound?
The MIC was no less than 1000 µM.

What about the MIC (Klebsiella aerogenes) of the same compound?
The MIC was no less than 1000 µM.

What about the MIC (Acinetobacter sp.) of the same compound?
The MIC was 10 µM (≈ 15.1 µg/mL).

What about the MIC (Proteus mirabilis) of the same compound?
The MIC was no less than 1000 µM.

For `CC[C@H](C)[C@H](NC(=O)[C@@H]1CCCN1C(=O)[C@H](CCCN=C(N)N)NC(=O)[C@@H]1CCCN1C(=O)[C@@H](NC(=O)[C@H](CCCN=C(N)N)NC(=O)[C@@H](N)CCCN=C(N)N)[C@@H](C)CC)C(=O)N[C@@H](CC(C)C)C(=O)N[C@@H](CC(C)C)C(=O)N1CCC[C@H]1C(=O)N[C@@H](Cc1c[nH]c2ccccc12)C(=O)N[C@@H](CCCN=C(N)N)C(=O)N1CCC[C@H]1C(=O)N1CCC[C@H]1C(=O)N[C@@H](CCCN=C(N)N)C(=O)N1CCC[C@H]1C(=O)N[C@H](C(=O)N1CCC[C@H]1C(=O)N[C@@H](CCCN=C(N)N)C(=O)N1CCC[C@H]1C(=O)N[C@@H](CCC(N)=O)C(=O)N1CCC[C@H]1C(=O)N[C@@H](CCC(N)=O)C(=O)N1CCC[C@H]1C(=O)N[C@H](C(=O)N1CCC[C@H]1C(=O)N[C@@H](CCCN=C(N)N)C(=O)N[C@@H](Cc1c[nH]c2ccccc12)C(=O)N[C@@H](CC(C)C)C(N)=O)[C@@H](C)CC)[C@@H](C)CC` [RRIPRPILLPWRPPRPIPRPQPQPIPRWL], which MIC (Candida albicans 105) is on record?
Its MIC is 17.8 µM (≈ 64 µg/mL).

And the MIC (Escherichia coli UB1005)?
The MIC was 2.22 µM (≈ 8 µg/mL).

And the MIC [4]?
Its MIC is 4.44 µM (≈ 16 µg/mL).

And the MIC [5]?
Its MIC is 8.89 µM (≈ 32 µg/mL).

What about the MIC [6] of the same compound?
Its MIC is 8.89 µM (≈ 32 µg/mL).

And the MIC (Escherichia coli O111)?
Its MIC is 4.44 µM (≈ 16 µg/mL).

What about the MIC [7] of the same compound?
The MIC was 17.8 µM (≈ 64 µg/mL).

What about the MIC [8] of the same compound?
Its MIC is 17.8 µM (≈ 64 µg/mL).

And the MIC (Escherichia coli DC2)?
Its MIC is 0.555 µM (≈ 2 µg/mL).

And the MIC (Candida albicans 3153A)?
Its MIC is 17.8 µM (≈ 64 µg/mL).

And the MIC [9]?
Its MIC is 8.89 µM (≈ 32 µg/mL).

And the MIC (Escherichia coli O157:H7)?
Its MIC is 8.89 µM (≈ 32 µg/mL).

What about the MIC [10] of the same compound?
Its MIC is 17.8 µM (≈ 64 µg/mL).

And the MIC [11]?
The MIC was 8.89 µM (≈ 32 µg/mL).

And the MIC [12]?
The MIC was 0.555 µM (≈ 2 µg/mL).

What does the source list for `CC[C@H](C)[C@H](NC(=O)[C@H](CC(C)C)NC(=O)[C@@H](N)Cc1ccccc1)C(=O)NCC(=O)N[C@@H](CCSC)C(=O)N[C@H](C(=O)N[C@@H](CCC(N)=O)C(=O)NCC(=O)N[C@@H](CC(C)C)C(=O)N[C@H](C(=O)N[C@H]1CSSC[C@@H](C(=O)O)NC(=O)[C@H](CCCCN)NC(=O)[C@H](CCCN=C(N)N)NC(=O)[C@H]([C@@H](C)O)NC(=O)[C@H]([C@@H](C)CC)NC(=O)[C@H](CC(C)C)NC1=O)[C@@H](C)CC)[C@@H](C)O` [FLIGMTQGLICLITRKC]?
MIC [13]: 31.4 µM (≈ 59.9 µg/mL); MIC [14]: 13.1 µM (≈ 25 µg/mL); MIC (Escherichia coli): 25.6 µM (≈ 48.9 µg/mL); MIC (Staphylococcus aureus): 12.8 µM (≈ 24.4 µg/mL); MIC (Bacillus cereus): 25.6 µM (≈ 48.9 µg/mL); MIC [15]: 7.85 µM (≈ 15 µg/mL); MIC [16]: 26.2 µM (≈ 49.9 µg/mL); MIC [17]: ≥ 52.3 µM; MIC [18]: 3.27 µM (≈ 6.24 µg/mL); MIC [19]: > 52.3 µM; MIC [20]: 13.1 µM (≈ 25 µg/mL); MIC (Lactococcus lactis): 25.6 µM (≈ 48.9 µg/mL); MIC [21]: 31.4 µM (≈ 59.9 µg/mL); MIC [22]: ≥ 52.3 µM

With `CSCC[C@H](NC(=O)[C@H](CC(N)=O)NC(=O)[C@H](CCCN=C(N)N)NC(=O)[C@H](CCC(N)=O)NC(=O)[C@H](Cc1c[nH]c2ccccc12)NC(=O)[C@H](CCC(N)=O)NC(=O)[C@H](Cc1ccccc1)NC(=O)[C@@H](N)CS)C(=O)N[C@@H](CCCN=C(N)N)C(=O)N[C@@H](CCCCN)C(=O)N[C@H](C(=O)N[C@@H](CCCN=C(N)N)C(=O)O)C(C)C` [CFQWQRNMRKVR] as the compound, how does the MIC [23] read?
The MIC was 7.57 µM (≈ 12.5 µg/mL).

Which results are given for `C[C@H](N)C(=O)N[C@@H](CCCN=C(N)N)C(=O)N[C@@H](Cc1c[nH]c2ccccc12)C(=O)N[C@@H](Cc1c[nH]c2ccccc12)C(=O)N[C@@H](Cc1c[nH]c2ccccc12)C(=O)N[C@@H](CCCN=C(N)N)C(=O)N[C@@H](C)C(N)=O` [ARWWWRA]?
MIC [24]: 128 µM (≈ 132 µg/mL); MIC (Staphylococcus aureus 75): ≥ 64 µM; MIC [25]: 64 µM and 128 µM; MIC [26]: ≥ 128 µM; MIC [27]: ≥ 128 µM; MIC [28]: ≥ 128 µM; MIC [29]: > 128 µM; MIC [30]: 16 µM (≈ 16.5 µg/mL); MIC [31]: > 128 µM; MIC [32]: > 128 µM; MIC (Escherichia coli 780): ≥ 128 µM; MIC [19]: > 128 µM; MIC (Escherichia coli 804): ≥ 128 µM; MIC [33]: ≥ 64 µM; MIC [20]: 32 µM (≈ 33 µg/mL); MIC [34]: > 128 µM; MIC [35]: ≥ 128 µM
